From patent US9877969B2, “Treatments with triazines” (CEVA SANTE ANIMALE, priority 2012, dated 2018)

Key:
Format in all cases: in vivo
[1] = Local and general tolerance of a single intramuscular injection in 3-day-old piglets (Example A)
Procedure: (§1) This target animal safety and efficacy study was conducted on a farm with a known history of cocciodiosis. The main objective was to study the safety and efficacy of intramuscular injection of toltrazuril in comparison to the standard oral application. • Group 1: 8 piglets 3 days old were injected by a single intramuscular dose of toltrazuril (dose=20 mg toltrazuril per kg body weight equivalent to 0.4 mL/kg body weight) on SD0. • Group 2: 8 piglets 3 days old were injected by one intramuscular dose of toltrazuril (60 mg toltrazuril per kg body weight equivalent to 1.2 mL/Kg body weight) on SD0. • Group 3: 8 piglets 3 days old were dosed orally with the standard commercial formulation of toltrazuril, Cevazuril® (dose=20 mg toltrazuril per kg body weight equivalent to 0.4 mL/Kg body weight) on SD0. • Group 4: 12 piglets 3 days old, left untreated.
(§2) All four (4) groups of piglets were injected on SD0 with iron (Gleptosil®) at the dose rate of 1 ml per piglet.
(§3) The local and general tolerances, as well as body weight development, were assessed.

[2] = Body weight development of piglets on a farm with a known history of coccidiosis (Example A)
Procedure: as §1, §2, §3

[3] = Local and general tolerance in 2-day-old piglets (Example B); conditions: all tested doses (i.m. 20 and 40 mg/kg)
Procedure: (§4) • Group 1: 10 piglets 2 days old were injected with one intramuscular dose of toltrazuril C629 (dose=20 mg toltrazuril per kg body weight equivalent to 0.4 mL/Kg body weight) on SD0. • Group 2: 11 piglets 2 days old were injected with one intramuscular dose of toltrazuril C629 (dose=40 mg toltrazuril per kg body weight equivalent to 0.8 mL/kg body weight) on SD0. • Group 3: 9 piglets 2 days old were dosed orally with the standard commercial formulation of toltrazuril, Cevazuril® (dose=20 mg toltrazuril per kg body weight equivalent to 0.4 mL/Kg body weight) on SD0. • Group 4: 8 piglets, left untreated.
(§5) All four (4) groups of piglets were injected on SD0 with iron injection (Gleptosil®) at the dose rate of 1 ml per piglet. 3 days after treatment (on SD3), the piglets were orally challenged with a characterized strain of Isospora suis.
(§6) The following study parameters were used to assess the efficacy of the test products: • Local and general tolerance (for Groups 1 and 2); • Occurrence of diarrhea and fecal consistency; • Oocyst excretion; • Body weight development; and • Serum concentrations of toltrazuril and its metabolite toltrazuril sulfone (e.g., ponazuril) in Groups 1, 2 and 3. Results

Isospora suis = assay: Anti-coccidial efficacy in piglets orally challenged with Isospora suis (Example B); conditions: single i.m. 20 or 40 mg/kg (G1, G2)
Procedure: as §4, §5, §6

[4] = Pharmacokinetics: serum concentrations of toltrazuril and toltrazuril sulfone in 2-day-old piglets (Example B); conditions: after intramuscular application
Procedure: as §4, §5, §6

With `Cc1cc(-n2c(=O)[nH]c(=O)n(C)c2=O)ccc1Oc1ccc(SC(F)(F)F)cc1` [toltrazuril] the “Time to disappearance of local reaction (edema) post injection” value ([1]; intramuscular 1.2 mL/Kg body weight) was “less than 1 week”, the Local reaction ([1]; intramuscular 1.2 mL/Kg body weight (60 mg/kg)) was “limited local reaction (edema) in some piglets” and the General tolerance ([1]; single intramuscular doses up to 60 mg/kg, 3-day-old piglets) was “well tolerated”. The Pain at injection ([1]; single intramuscular injection, 3-day-old piglets) was “No pain”, the “Weight gain versus control non-treated piglets” value ([2]; intramuscularly treated piglets, at SD0+29 days) was “+2 kg” and the Body weight development ([2]; treated piglets) was “normal”. For the same compound, the Tolerance [3] was “well tolerated”, the Fecal consistency (Isospora suis; Isospora suis challenge on SD3) was “unchanged” and the Oocyst excretion (Isospora suis; Isospora suis challenge on SD3) was “No oocyst excretion”. For the same compound, the “Weight gain versus control animals (G4)” value (Isospora suis; infected animals) was “gained more weight than the control animals” and the Absorption [4] was “well absorbed”.
